Source: PMC9137037 (Frontiers in Oncology, 2022)
Where no end group is shown, it is not given here.

Tests used:
[1] = system: CT26 colon carcinoma cells; assay: CT26 tumor challenge in immunized syngeneic BALB/c mice; assay type: in vivo, mouse
Description: The peptide vaccine MVF-PD-1(92-110) was dissolved in sterile water and mixed with either ISA 720 or ISA 51 (1:1) ratio. We utilized the well-established murine colon carcinoma cell line CT26 tumor model in syngeneic BALB/c mice to evaluate the effects of vaccination previously described ([23]). Briefly, 6–8-week-old female BALB/c mice were immunized with the peptide vaccine, and 2 weeks after the third immunization, the mice were challenged with 1×10^5 CT26 colon cancer cells by subcutaneous injection (SC). The CT26 cancer cell line was maintained in the DMEM medium with 10% FBS 5% CO2 at 37 °C. Phosphate-buffered saline (PBS)-treated mice were set as negative control, while the positive control group mice were treated with an anti-mouse PD-1 monoclonal antibody (clone 29F.1A12; Bio X Cell, West Lebanon, NH, USA) with 200 μg/dose per mouse. Blood was collected biweekly after the primary immunization until 2 weeks after the third immunization. Tumor growth was monitored daily, especially 7 days after the tumor challenge. The mice were euthanized at the end of treatment, and the tumors were extracted and weighed.
The mice in PBS and mAb (29F.1A12) groups, n = 10; group 1 to group 7, n = 8, group 8 n = 7 (one mouse was lost due to a non-immunization related reason before the challenge).
The mice challenged with CT26 tumor cells were monitored at least twice per week and tumor sizes were measured by calipers. The formula, volume (LWW) = (length × width × width)/2, was used to calculate tumor volumes. All values are shown as means ± standard deviation. Data statistical analysis was performed by GraphPad Prism 8.1.2 (GraphPad Software, Inc. San Diego, CA, USA) and the indicated statistical analysis. The percentage of tumor growth inhibition (%TGI) was defined as the difference between the median tumor volume (MTV) of the treatment group with the PBS control group, and the value was calculated by the following formula: %TGI=100*(MTV control − MTV test)/MTV control. The percentage of complete response (CR) was defined as the tumor volume equal to or less than 50 mm^3 for at least 3 consecutive measurements during the study. The log-rank (Mantel−Cox) test was used to compare the percentage of CR in multiple groups. Student’s t-test was used to analyze the difference between the two groups. One-way analysis of variance (one-way ANOVA) followed by the Tukey’s multiple comparison test were used to compare data in multiple groups or data between groups in multiple groups, and the two-way ANOVA was used to analyze the whole curve comparison. The log-rank (Mantel−Cox) test was use to compare the survival curves. A p-value or an adjusted p-value less than 0.05 was accepted as a statistically significant difference.
To verify and confirm the previous immunogenicity studies and antitumor activities of PD-1(92-110) ([23]), 6–8-week-old BALB/c mice were vaccinated with MVF-PD-1(92-110) every 2- or 3- week intervals. Peptide cancer vaccine (100 μg) mixed with ISA 720 (1:1) or ISA 51 (1:1) or nor-MDP 33 μg were used per mice. Mice were boosted with the designed doses of vaccine every 2- or 3-week intervals for a total of 3 vaccine shots. Blood was collected weekly for monitoring antibody titers. After 2 weeks of the third immunization (3Y), mice were challenged with CT26 colon carcinoma cells for 1×10^5 cells per mouse. The tumor growths were monitored and checked daily, especially 7 days post-challenge, and the tumor size was measured with calipers ( Figure 1A ). For the positive control group, we treated the mice with an anti-mouse PD-1 antibody (clone 29F.1A12) twice a week for up to three weeks, while the negative control group was treated with PBS. The mice CT26 tumor model study was separated into 10 different groups, post-challenge treated with PBS as the negative control group or an anti-mouse PD-1 antibody (clone 29F.1A12) as positive control group ( Figure 1B ). Group 1 to group 8 comprised the peptide vaccine treatment groups. […]

[2] = system: cynomolgus monkeys; assay: GLP repeat-dose toxicology, second monkey study No.00213519; assay type: in vivo, Macaca fascicularis
Description: The non-human primate studies were carried out by the Charles River Laboratories (Ashland, OH USA). All the cynomolgus monkeys (Macaca fascicularis of Chinese origin) were obtained from Charles River Laboratories (Houston, TX, USA). In brief, the animals were approximately 2–4 years old and at the body weight between 2.2 and 3.1 kg at the initial dosing. The animals were kept at the temperature between 19°C and 24°C, humidity 30%–70%, and with 12 h light and 12 h dark light cycle. The Good manufacturing practice (GMP)-manufactured vaccine was used in the non-human primate study. […] Similar to mouse and dog dosing preparation, after the emulsion was prepared, a drop test was performed on each time of dosing to confirm that the emulsion had been prepared properly. […] The dose volume was split approximately equally across two different sites; 0.5 ml of the dose was intramuscularly (IM) injected into the right posterior lateral thigh, the left dosing was injected into the left site. All the animals’ body weights were monitored weekly after receiving. After each immunization, the animal body temperature was tested 6 and 24 h post each immunization. […] The animal bleed were collected before each time of immunization to monitor the antibody titers. There were two sets of non-human primate studies conducted. The first set of monkey study No.00213515 had 24 monkeys, 12 males, and 12 females divided into 4 groups: vehicle control, low dose 0.5 mg, medium dose 2 mg, and high dose 5 mg. There were 16 monkeys (8 males and 8 females) in the second set of monkey study No. 00213519. The monkeys in the four groups were vaccinated as follows: vehicle control, low dose 25 μg, medium dose 100 μg, and high dose 250 μg.
In the second set of non-human primate study (#00213519), 16 non-human primates, cynomolgus monkeys, were used. The monkeys were immunized […] at 2-week intervals represented by 1Y, 2Y, 3Y, and 4Y at days 1, 15, 29, and 43, respectively.The bleed were collected at day 1 (pre), day 29 (2Y+2/3Y), day 43 (3Y+2 and 4Y), and day 57 (4Y+2) ( Figure 4C ). There were four groups with 4 monkeys (2 males and 2 females) in each group. Group 1 was the control group, which was treated with only ISA 720 and ddwater. […] The Immunogenicity of peptide-based vaccines in non-human primates was detected by using ELISA to detect antibody titers in the sera of both non-human primate studies ( Figures 4E, F ). The relative high antibody responses have been established in each individual cynomolgus monkey.
A slight increase in anti-APi2568 antibody titers was observed between day 29 and day 43, with no apparent reduction in titers by […].

[3] = 0, 25, 100, 250 µg/dose, days 1, 15, 29, 43, 14-day recovery

KLLSLIKGVIVHRLEGVEGPSLGAISLAPKAQIKESLRAEL [MVF-PD-1(92-110)]
percentage of complete response (CR) ([1]; CR = tumor volume ≤50 mm^3 for at least 3 consecutive measurements, combined immunized groups vs PBS and mAb 29F.1A12, log-rank): higher percentage of complete response | tumor burden vs PBS and vs 29F.1A12 (summary) ([1]; mouse, CT26, Figures 2G, H): PD-1(92) significant less tumor burden vs. PBS, no difference vs. 29F.1A12 ( Figures 2G, H ); | 2-week vs. 3-week immunization interval (summary) ([1]; mouse, CT26, Figures 2G-I): 2-week vs. 3-week no difference ( Figures 2G-I ); | ISA 720 vs ISA 51 (summary) ([1]; mouse, CT26, Figures 2G-I): ISA 720 vs ISA 51 no difference ( Figures 2G-I ); | No nor-MDP vs nor-MDP (summary) ([1]; mouse, CT26, Figures 2G-I): No nor-MDP vs nor-MDP no difference ( Figures 2G-I ); | tumor size (LWW) versus the PBS group ([1]; two-way ANOVA of whole-curve comparison, p-value less than 0.01, majority of the mice): significantly inhibited | effects on body weight, food consumption, body temperature, clinical pathology parameters, or organ weight [2, 3]: No APi2568-related adverse effects | survival [2, 3]: All monkeys survived to the scheduled necropsy | NOAEL ([2]; 25, 100, 250 µg/dose IM as PD1-Vaxx, male and female cynomolgus monkeys): 100 µg/dose | safety (summary) ([2]; monkey 2nd set): safe | microscopic finding in the biceps femoris IM injection site ([2]; single 250 µg/dose group female monkey, 4 doses at 2-week intervals): adverse necrosis
